Patent US8084027B2, “Combinations comprising a CDK inhibitor and a growth factor antibody or anti-mitotic” (Nerviano Medical Sciences S.r.l., priority 2006, dated 2011)
Read-outs that look alike come from different tables or passages of the source.

Columns and labels:
[1] = test system: DU145 prostate carcinoma cells; conditions: Compound A 40 mg/kg oral BID; for Time to reach 1 g: DU145 s.c. in athymic mice, docetaxel 10 mg/kg i.v. days 10, 14, 18, in combination Compound A given between docetaxel treatments; for T-C: delay vs control to reach tumor size 1 g, docetaxel 10 mg/kg i.v.
Experimental: Balb, Nu\Nu male mice, from Harlan (Italy), were maintained in cages with paper filter cover, food and bedding sterilized and water acidified. 2.5×10^6 DU145 prostate carcinoma cells (from the American Type Culture Collection) were injected subcutaneously in athymic mice.
The treatment started 10 days later tumor cells injection when tumors were palpable. Docetaxel was prepared immediately before treatment, while COMPOUND A was prepared every 3 days, on the basis of known stability of the compound.
COMPOUND A was administered by oral route in a volume of 10 ml/kg at the doses of 40 mg/kg twice a day (BID) for 9 days (days 10 to 18). Docetaxel was administered by intravenous route in a volume of 10 ml/kg at the dose of 10 mg/kg on days 10, 14, 18 from the days of cell injection. When combined, COMPOUND A was administered in the interval between the docetaxel treatments at days 11, 12, 13, 15, 16, 17, 19, 20 and 21. Tumor growth and body weight were measured every 3 days. Tumor growth was assessed by caliper. The two diameters were recorded and the tumor weight was calculated according to the following formula: length (mm)×width^2/2. The effect of the antitumor treatment was evaluated as the delay in the onset of an exponential growth of the tumor (see for references, Anticancer drugs 7:437-60, 1996). This delay (T-C value) was defined as the difference of time (in days) required for the treatment group (T) and the control group (C) tumors to reach a predetermined size (1 g). Toxicity was evaluated on the basis of body weight reduction.

[2] = test system: DU145 prostate carcinoma cells; test: In vivo antitumor efficacy using the monoclonal antibody (DU145 xenograft, tumor growth delay); conditions: COMPOUND A 40 mg/kg oral BID; for Time to reach 1 g: DU145 s.c. in athymic mice, bevacizumab 20 mg/kg i.p. days 6, 10, 14, 18, in combination COMPOUND A given between bevacizumab treatments; for T-C: delay vs control to reach tumor size 1 g
Experimental: Balb, Nu\Nu male mice, from Harlan (Italy), were maintained in cages with paper filter cover, food and bedding sterilized and water acidified. 2.5×10^6 DU145 prostate carcinoma cells (from the American Type Culture Collection) were injected subcutaneously in athymic mice. […] The treatment started 6 days later tumor cell injection when tumors were palpable. Bevacizumab was prepared immediately before treatment, while COMPOUND A was prepared every 3 days, on the basis of known stability of the compound.
COMPOUND A was administrated by oral route in a volume of 10 ml/kg at the dose of 40 mg/kg twice a day (BID) for 12 days (days 6 to 17). Bevacizumab was administered intraperitoneally in a volume of 10 ml/kg at the dose of 20 mg/kg on days 6, 10, 14, 18 from the days of tumor cells injection. When combined, COMPOUND A was administered in the interval between the bevacizumab treatments at days 7, 8, 9, 11, 12, 13, 15, 16, 17, 19, 20 and 21. Tumor growth and body weight were measured every 3 days. Tumor growth was assessed by caliper. The two diameters were recorded and the tumor weight was calculated according the following formula: length (mm)×width^2/2. The effect of the antitumor treatment was evaluated as the delay in the onset of an exponential growth of the tumor (see for references, Anticancer drugs 7:437-60, 1996). This delay (T-C value) was defined as the difference of time (in days) required for the treatment group (T) and the control group (C) tumors to reach a predetermined size (1 g). Toxicity was evaluated on the basis of body weigh reduction.

CNC(=O)c1nn(C)c2c1C(C)(C)Cc1cnc(Nc3ccc(N4CCN(C)CC4)cc3)nc1-2 [COMPOUND A, 8-[4-(4-methyl-piperazin-1-yl)-phenylamino]-1,4,4-trimethyl-4,5-dihydro-1H-pyrazolo[4,3-h]quinazoline-3-carboxylic acid methylamide]
Time to reach 1 g [1]: 27.4 ± 2.7 days
T-C [1]: 10.21 days
Time to reach 1 g [2]: 32.38 ± 2.7 days
T-C ([2]; bevacizumab 20 mg/kg i.p.): 16.88 days

CC(=O)O[C@@]12CO[C@@H]1C[C@H](O)[C@@]1(C)C(=O)[C@H](O)C3=C(C)[C@@H](OC(=O)[C@H](O)[C@@H](NC(=O)OC(C)(C)C)c4ccccc4)C[C@@](O)([C@@H](OC(=O)c4ccccc4)[C@H]21)C3(C)C [Docetaxel]
Time to reach 1 g [1]: 22.25 ± 2.98 days
T-C [1]: 5.05 days

Bevacizumab: antibody to vascular endothelial growth factor
Time to reach 1 g [2]: 27.93 ± 3.44 days
T-C ([2]; bevacizumab 20 mg/kg i.p.): 12.43 days
Toxicity ([2]; evaluated on the basis of body weight reduction, bevacizumab 20 mg/kg i.p.): 0/8
